The record followed here is ChEMBL document CHEMBL3091292, “Towards tropomyosin-related kinase B (TrkB) receptor ligands for brain imaging with PET: radiosynthesis and evaluation of 2-(4-[(18)F]fluorophenyl)-7,8-dihydroxy-4H-chromen-4-one and 2-(4-([N-methyl-(11)C]-dimethylamino)phenyl)-7,8-dihydroxy-4H-chromen-4-one” (Bioorg Med Chem, 2013).

The target of data set [1] is BDNF/NT-3 growth factors receptor (Homo sapiens, UniProt Q16620). Nature of the data set: Binding affinity to TrkB receptor extracellular domain (unknown origin) after 10 mins by liquid Scatchard plot analysis.
Data set [2] is described as follows: Half life in rat plasma by HPLC analysis. In kind it is ADME, cell-free.
Data set [3] concerns Brain. The data set can be described thus: Biodistribution in Sprague-Dawley rat brain assessed as drug level per body weight at 230 to 876 uCi, iv after 60 mins by PET imaging analysis. Format: ADME, organism-based. Particulars: in vivo, 1 h; call rule not given here.
A short description of data set [4]: Octanol-phosphate buffered saline partition coefficient, log D of the compound at pH 7.4 by shake-flask method. Format: physicochemical.
Data set [5] can be described thus: Plasma protein binding in rat after 15 mins. Format: ADME, cell-free. The following applies: read-out: PPB (converted).
Data set [6] has as its system Striatum. The data set can be described thus: Biodistribution in rat striatum after 65 mins by autoradiography relative to control in presence of BDNF. In kind it is ADME, organism-based. Particulars: in vivo.
Data set [7] deals with Thalamus. The data set can be described thus: Biodistribution in rat thalamus after 65 mins by autoradiography relative to control in presence of 7,8-dihydroxyflavone. In kind it is ADME, organism-based. Particulars: in vivo.
A short description of data set [8]: Drug degradation in rat plasma after 90 mins by HPLC analysis. In kind it is ADME, cell-free. The following applies: read-out: Drug degradation.
In data set [9] the test system is Cortex. Nature of the data set: Biodistribution in rat cortex after 65 mins by autoradiography relative to control in presence of BDNF. Format: ADME, organism-based. The following applies: in vivo.
Data set [10] deals with Cerebellum. The data set can be described thus: Biodistribution in rat cerebellum after 65 mins by autoradiography. Particulars: in vivo. In kind it is ADME, organism-based.
Data set [11] has as its system Hippocampus. Nature of the data set: Biodistribution in rat hippocampus after 65 mins by autoradiography relative to control in presence of BDNF. Format: ADME, organism-based. Particulars: in vivo.
For data set [12], the system named is Kidney. The data set can be described thus: Biodistribution in Sprague-Dawley rat kidney assessed as drug level per body weight at 230 to 876 uCi, iv after 60 mins by PET imaging analysis. In kind it is ADME, organism-based. The following applies: in vivo, 1 h.
The species named for data set [13] is Rattus norvegicus. Nature of the data set: Biodistribution in rat caudate putamen after 65 mins by autoradiography. Particulars: in vivo. Format: ADME, organism-based.
Data set [14] relates to Liver. Nature of the data set: Biodistribution in Sprague-Dawley rat liver assessed as drug level per body weight at 230 to 876 uCi, iv after 120 mins by PET imaging analysis. Format: ADME, organism-based. The following applies: in vivo, 2 h.
Data set [15] relates to Aorta. Nature of the data set: Biodistribution in Sprague-Dawley rat aorta assessed as drug level per body weight at 230 to 876 uCi, iv after 30 mins by PET imaging analysis. In kind it is ADME, organism-based. Particulars: in vivo, 0.5 h.
Data set [16] has as its system Cerebellum. The data set can be described thus: Biodistribution in rat cerebellum after 65 mins by autoradiography relative to control in presence of 7,8-dihydroxyflavone. Format: ADME, organism-based. Particulars: in vivo.
Data set [17] deals with Cortex. The data set can be described thus: Biodistribution in rat cortex after 65 mins by autoradiography relative to control in presence of 7,8-dihydroxyflavone. Format: ADME, organism-based. The following applies: in vivo.
Data set [18] deals with Hippocampus. Nature of the data set: Biodistribution in rat hippocampus after 65 mins by autoradiography relative to control in presence of 7,8-dihydroxyflavone. Format: ADME, organism-based. Particulars: in vivo.
For data set [19], the system named is Thalamus. Nature of the data set: Biodistribution in rat thalamus after 65 mins by autoradiography relative to control in presence of BDNF. Particulars: in vivo. Format: ADME, organism-based.
The test system of data set [20] is Rattus norvegicus. The data set can be described thus: Biodistribution in Sprague-Dawley rat whole brain assessed as drug level per body weight at 230 to 876 uCi, iv after 30 mins by PET imaging analysis. Format: ADME, organism-based. The following applies: in vivo, 0.5 h.
For data set [21], the system named is Striatum. Nature of the data set: Biodistribution in rat striatum after 65 mins by autoradiography relative to control in presence of 7,8-dihydroxyflavone. Format: ADME, organism-based. Particulars: in vivo.
For data set [22], the system named is Cerebral cortex. Nature of the data set: Biodistribution in rat cerebral cortex after 65 mins by autoradiography. In kind it is ADME, organism-based. Particulars: in vivo.
For data set [23], the system named is Cerebellum. Nature of the data set: Biodistribution in rat cerebellum after 65 mins by autoradiography relative to control in presence of BDNF. Format: ADME, organism-based. The following applies: in vivo.
In data set [24] the test system is Hippocampus. Nature of the data set: Biodistribution in rat hippocampus after 65 mins by autoradiography. Format: ADME, organism-based. The following applies: in vivo.
The test system of data set [25] is Thalamus. Nature of the data set: Biodistribution in rat thalamus after 65 mins by autoradiography. In kind it is ADME, organism-based. Particulars: in vivo.

Sequence of BDNF/NT-3 growth factors receptor (Q16620 whole entry, the tested form may be a part): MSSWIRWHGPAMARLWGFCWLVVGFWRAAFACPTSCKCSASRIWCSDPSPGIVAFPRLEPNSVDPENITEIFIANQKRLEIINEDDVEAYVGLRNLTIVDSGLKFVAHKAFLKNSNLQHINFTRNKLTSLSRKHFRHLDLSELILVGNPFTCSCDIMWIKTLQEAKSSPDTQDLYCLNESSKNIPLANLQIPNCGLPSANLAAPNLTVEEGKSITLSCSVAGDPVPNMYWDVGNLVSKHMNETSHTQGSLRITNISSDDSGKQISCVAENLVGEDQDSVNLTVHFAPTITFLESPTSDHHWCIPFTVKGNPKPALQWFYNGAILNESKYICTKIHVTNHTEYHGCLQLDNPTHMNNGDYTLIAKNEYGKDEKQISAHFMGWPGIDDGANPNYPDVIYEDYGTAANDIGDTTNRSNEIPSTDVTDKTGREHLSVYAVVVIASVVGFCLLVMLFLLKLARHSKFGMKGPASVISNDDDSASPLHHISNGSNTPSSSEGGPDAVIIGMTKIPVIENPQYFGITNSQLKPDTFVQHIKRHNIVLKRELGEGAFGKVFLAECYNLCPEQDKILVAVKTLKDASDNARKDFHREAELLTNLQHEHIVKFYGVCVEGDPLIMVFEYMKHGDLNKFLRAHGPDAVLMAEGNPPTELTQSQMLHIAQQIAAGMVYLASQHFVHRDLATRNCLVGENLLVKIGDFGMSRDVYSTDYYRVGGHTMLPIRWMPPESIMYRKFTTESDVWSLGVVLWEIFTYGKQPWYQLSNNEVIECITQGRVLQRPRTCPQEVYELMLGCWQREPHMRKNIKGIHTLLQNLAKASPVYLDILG

With `O=c1cc(-c2ccccc2)oc2c(O)c(O)ccc12` [7,8-DIHYDROXYFLAVONE], the affinity in [1], expressed as Kd, was 320 nM. That is a sub-micromolar value.

As to `CN([11CH3])c1ccc(-c2cc(=O)c3ccc(O)c(O)c3o2)cc1`, the half-life (in general, the time in which the quantity being followed falls by half) in data set [2] is 10 min. Also, in data set [3], the SUV was found to be 0.7. Further, the logD (as a rule, the decadic logarithm of the distribution of all forms, ionised or not, between an organic phase and buffer at a given pH) in data set [4] came to 2.8. Further, the fraction unbound at 0.25 h in data set [5] is 0.81.

Take `O=c1cc(-c2ccc([18F])cc2)oc2c(O)c(O)ccc12`: the Drug uptake in data set [6] is given as 14%; in [7], 19%; in data set [9], 16%; in data set [10] it was “Active”; in [11] it was 10%; in data set [13], “Active”. The Drug uptake in data set [16] is listed as 23%; in data set [17], 17%; in data set [18] it was 18%; in data set [19], 11%; in data set [21] it was 21%; in data set [22], “Active”. Moreover, the Drug uptake was 12% in data set [23], “Active” in [24] and “Active” in data set [25]. Further, the metabolised at 1.5 h in data set [8] is 10%. This compound also gave a logD in [4] of 2.2. For the same compound, the SUV in data set [12] stood at 4.38; in data set [14], 6.8; in data set [15], 6.62; in data set [20], 0.64. In data set [5], the fraction unbound at 0.25 h is 0.76.
